Test system: Dog PRP
Assay: In-Vitro Platelet Aggregation in PRP (ADP-induced, dog platelet-rich plasma)
Type: cell-based
Details: Canis lupus familiaris, 1 minute preincubation at 37° C., IC50 by linear regression of dose response curve
Protocol: In-Vitro Platelet Aggregation in PRP
Healthy male or female dogs were fasted for 8 hours prior to drawing blood; then 30 ml whole blood was collected using a butterfly needle and 30 cc plastic syringe with 3 ml of 0.129M buffered sodium citrate (3.8%). The syringe was rotated carefully as blood was drawn to mix the citrate. Platelet-rich plasma (PRP) was prepared by centrifugation at 975×g for 3.17 minutes at room temperature, allowing the centrifuge to coast to a stop without braking. The PRP was removed from the blood with a plastic pipette and placed in a plastic capped, 50 ml Corning conical sterile centrifuge tube which was held at room temperature. Platelet poor plasma (PPP) was prepared by centrifuging the remaining blood at 2000×g for 15 minutes at room temperature allowing the centrifuge to coast to a stop without braking. The PRP was adjusted with PPP to a count of 2-3×10^8 platelets per ml. 400 μl of the PRP preparation and 50 μl of the compound to be tested or saline were preincubated for 1 minute at 37° C. in a BioData aggregometer (BioData, Horsham, Pa.). 50 μl of adenosine 5'-diphosphate (ADP) (50 μm final concentration) was added to the cuvettes and the aggregation was monitored for 1 minute. All compounds are tested in duplicate. Results are calculated as follows: […]

Row | SMILES | IC50
1 | N=C(N)c1ccc(CCCCNC(=O)N[C@@H](CC(=O)O)C(=O)N[C@@H](Cc2ccccc2)C(=O)O)cc1 [Example 2, N-[N-[[[4-[4-(aminoiminomethyl)phenyl]butyl]amino]-carbonyl]-L-α-aspartyl]-L-phenylalanine] | 760 nM
2 | N=C(N)c1ccc(CCCCNC(=O)N[C@@H](CC(=O)O)C(=O)N[C@@H](Cc2c[nH]c3ccccc23)C(=O)O)cc1 [Example 3, N-[N-[[[4-[4-(aminoiminomethyl)phenyl]butyl]amino]carbonyl]-L-α-spartyl]-L-tryptophane] | 200 nM

Reference: patent US5354738A, “Platelet aggregation inhibitors” (G. D. Searle & Co., priority 1992, dated 1994)
